Patent publication US6239182A, “Method for preventing sexually transmitted diseases” (priority 1999, dated 2001)

Legend:
HIV-1 = settings: comparison statement, no data given; cited from earlier work
[1] = tested on: sheep testicular hyaluronidase; assay: hyaluronidase inhibition (hyaluronic acid hydrolysis); format: biochemical; settings: pH 5.5, 10 minutes preincubation; inactive = no inhibition at 1 mg/ml
Procedure: Hyaluronidase activity was quantitatively determined by measuring the extent of hyaluronic acid hydrolysis (i.e., the concentration of N-acetylglucosamine-reactive material formed from enzyme activity). Reaction mixtures (0.25 ml) containing the following were prepared: test compound (variable concentration); 0.1 M sodium acetate; 0.15 M sodium chloride; pH adjusted to 5.5; 7.2 units sheep testicular hyaluronidase (Sigma, Type III; H-2251) contained in an acetate buffer; 0.3 mg/ml hyaluronic acid (Sigma, from bovine vitreous humor; H-7630). The enzyme was preincubated with the test agent (1 mg/ml for screening purposes) for 10 minutes before starting the reaction by the addition of hyaluronic acid. The enzyme reaction was determined using the method of Aronson and Davidson (J. Biol. Chem. 241 437-440 (1967)). The reaction mixture was incubated for 30 minutes at room temperature.
The reversibility of the hyaluronidase was determined by evaluating enzyme activity at different levels of enzyme (Ackermann and Potter, Proc. Soc. Exp. Biol. Med. 72 1-9 (1949)).

MT2 cells = assay: cytotoxicity towards host cells in the viral-binding inhibition assay; format: cell-based; settings: at the concentration ranges used in the viral-binding inhibition assay
Procedure: Serial dilutions of the test compounds (ranging from 0.1 μg/ml to 1.0 mg/ml) were added to HIV-1 virus such that 50 μl inoculum produced between 70 to 100 syncytia per well in untreated wells containing MT2 cells. The HIV-1 used was strain IIIs propagated in, and harvested from, a T4-lymphobastoid cell line. Each serial dilution of the test compound with virus was placed in each of three wells containing MT2 cells. The test compound alone was added to a fourth well containing MT2 cells to test for possible cytotoxicity. Triplicate virus control samples (no added test compounds but containing the equivalent amounts of the RPMI medium) were also included.

[2] = tested on: vaginal/cervical epithelial and other cells; settings: background statement; cited from earlier work
Lactobacillus gasseri = assay: effect on normal vaginal flora (Lactobacillus growth in culture); format: cell-based; settings: at 0.5 mg/ml
Procedure: This example illustrates the effect of the inhibitory agents of this invention on the normal vaginal flora. Lactobacillus gasseri, which is found in normal vaginal flora, was obtained from the American Type Culture Collection (Rockville, Md.) and cultured under anaerobic conditions at 37° C. in the presence of the desired test agents. Control samples without added test agents were also run. Samples were collected at twenty minute intervals starting at 120 minutes after the start of incubation through 240 minutes. The absorbance at 550 nm was used to estimate the cell density and inhibitory effects. Nonoxynol-9 was also evaluated for comparison purposes.

Nonoxynol-9
inhibition of the enveloped virus HIV (in words) (HIV-1): inhibits | IC50 (hyaluronidase) [1]: inactive | toxicity towards the host cells (MT2) (MT2 cells): did show cytotoxic effects | lowest concentration that can injure vaginal/cervical epithelial and other cells [2]: about 0.0005% | inhibition of Lactobacillus gasseri growth (Lactobacillus gasseri): about 60%
